Literature values as cited in patent publication US10537528B2 (The Regents of the University of California, priority 2015, dated 2020).

Columns and labels:
[1] = tested on: obese individuals with NASH; conditions: treated for 4-12 weeks
[2] = tested on: intracellular cystine (circulating white blood cells)
[3] = tested on: obese children who had steatosis; conditions: 400-1000 IU/day for 4-10 months

**Q.** Which “aminotransferase levels and gamma-GT” value [1] does the source give for `CC(=O)N[C@@H](CS)C(=O)O` [N-acetylcysteine] here?
**A.** improvement

**Q.** What about the “subject body mass index” value [1] of the same compound?
**A.** no reported change

**Q.** For `NCCS` [cysteamine], which “time to observed decrease in leukocyte cystine” value ([2]; delivery into the small intestine (WO 2007/089670)) is on record?
**A.** within an hour

**Q.** What about the “depletion of intracellular cystine” value ([2]; taken regularly, measured in circulating white blood cells) of the same compound?
**A.** up to 90%

**Q.** What does the source list for vitamin E?
**A.** mean AST levels after treatment ([3]; decreased from 104±61 IU/L, P<0.002): 33±11 IU/L; mean ALT levels after treatment ([3]; decreased from 175±106 IU/L, P<0.01): 40±26 IU/L
